Measured values as given in publication PMC10586324 (Journal of medicinal chemistry, 2023).
Where two headings read alike, the source gives them in different places.

How the values were obtained:
[1] = Nephelometry kinetic solubility screen in PBS; format: physicochemical
Mabs ATCC19977 = assay: MBC determination by CFU counting
[2] = Plasma stability, murine plasma; format: in vitro ADME; conditions: 1 μM, 120 min
[3] = system: HEP 93 liver cancer cell line; conditions: cited from earlier work
Mabs = conditions: enantiomers; cited from earlier work
[4] = oral administration, mice; cited from earlier work
[5] = oral administration, rats; cited from earlier work

## O=C(N[C@H](Cc1ccccc1)C(=O)Nc1ccccc1N1CC[S+]([O-])CC1)c1ccccc1F [Compound 15]
[1]
  solubility relative to MMV688845: approximately 5 times
Mabs ATCC19977
  MBC99 as multiple of MIC90: 2 X MIC90

## O=C(N[C@H](Cc1ccccc1)C(=O)Nc1ccccc1N1CCS(=O)(=O)CC1)c1cccs1 [Compound 20]
Mabs ATCC19977
  MBC99 as multiple of MIC90: 2 X MIC90

## O=C(N[C@H](Cc1ccccc1)C(=O)Nc1ccccc1N1CCS(=O)(=O)CC1)c1ccccc1F [Compound 24]
[2]
  stability in murine plasma: improved stability

## O=C(N[C@H](Cc1ccccc1)C(=O)Nc1ccccc1N1CCOCC1)c1cccs1 [MMV688845, Nα-2-thiophenoyl-D-phenylalanine-2-morpholinoanilide]
[3]
  cytotoxicity HEP 93: non-cytotoxic
Mabs
  activity against Mabs: shows activity
[4]
  drug plasma levels: low drug plasma levels
[2]
  stability in murine plasma: stronger decline in concentration than compound 24
[5]
  drug plasma levels: low drug plasma levels
Mabs ATCC19977
  MBC99 as multiple of MIC90: 8 X MIC90
Mabs ATCC19977; at 6.25 μM (derivatives: 6.25 μM and higher)
  reduction of viable bacteria: no reduction
